Measurements taken from patent publication US20230365533A1, “BICYCLOHEPTANE PYRROLIDINE OREXIN RECEPTOR AGONISTS” (MERCK SHARP & DOHME CORP., priority 2021, published 2023).

Target: T1, human OX2R (Homo sapiens, UniProt O43614)
T1 construct: expressed in transfected cells; host or cells: CHO (Chinese hamster ovary) cells, grown under G418 selection
T1 sequence (O43614 1-444): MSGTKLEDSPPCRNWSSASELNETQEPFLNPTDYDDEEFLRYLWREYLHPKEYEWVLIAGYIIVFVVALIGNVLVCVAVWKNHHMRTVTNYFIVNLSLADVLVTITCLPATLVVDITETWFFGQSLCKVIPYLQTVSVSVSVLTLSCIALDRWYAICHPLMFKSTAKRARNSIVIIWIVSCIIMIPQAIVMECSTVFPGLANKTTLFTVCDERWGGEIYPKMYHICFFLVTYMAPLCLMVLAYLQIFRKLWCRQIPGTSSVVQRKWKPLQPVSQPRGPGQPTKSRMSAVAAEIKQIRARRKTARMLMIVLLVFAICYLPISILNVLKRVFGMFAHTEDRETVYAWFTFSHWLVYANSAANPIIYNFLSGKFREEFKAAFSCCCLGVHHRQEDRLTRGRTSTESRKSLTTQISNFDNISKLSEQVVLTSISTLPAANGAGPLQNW
Test: IPOne (IP-1) orexin receptor agonist assay in CHO cells expressing human OX2R
Format: cell-based
Conditions: for IC50: IPOne assay, CHO cells expressing human OX2R, 2 hours incubation, read-out: hoX2R_IP IC50
Procedure, shortened: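 CHO cells with human OX2R treated 2 h at 37 °C with 10-point ½-log compound dilutions in stimulation buffer; IP-1 accumulation read by HTRF (665/620 nm) after 60 min detection. EC50 from four-parameter fit; % effect versus a 1 uM reference agonist.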

Row | Compound | IC50 [nM] | Emax (CHO, percent of mean max effect of a reference compound at 1 uM with 100% activity vs Orexin A, human OX2R) [%]
1 | COC(=O)N1[C@@H]2CCC[C@@H]2[C@H](NS(=O)(=O)C2CC2)[C@@H]1COC1CCC2(c3ncc(F)cn3)CC2C1 (stereo partly drawn) [Example 128, methyl (2R,3S,3aS,6aR)-3-(cyclopropanesulfonamido)-2-(((6-(5-fluoropyrimidin-2-yl)bicyclo[4.1.0]heptan-3-yl)oxy)methyl)hexahydrocyclopenta[b]pyrrole-1(2H)-carboxylate] | 1.8 | –
2 | CCS(=O)(=O)N[C@H]1[C@H]2CCC[C@H]2N(C(=O)OC)[C@H]1COC1CCC2(c3ncc(F)cn3)CC2C1 (stereo partly drawn) [Example 129, methyl (2R,3S,3aS,6aR)-3-(ethylsulfonamido)-2-(((6-(5-fluoropyrimidin-2-yl)bicyclo[4.1.0]heptan-3-yl)oxy)methyl)hexahydrocyclopenta[b]pyrrole-1(2H)-carboxylate] | 0.9 | –
3 | COC(=O)N1[C@@H]2CCC[C@@H]2[C@H](NS(=O)(=O)CF)[C@@H]1COC1CCC2(c3ncc(F)cn3)CC2C1 (stereo partly drawn) [Example 130, methyl (2R,3S,3aS,6aR)-3-((fluoromethyl)sulfonamido)-2-(((6-(5-fluoropyrimidin-2-yl)bicyclo[4.1.0]heptan-3-yl)oxy)methyl)hexahydrocyclopenta[b]pyrrole-1(2H)-carboxylate] | 1.4 | –
4 | COC[C@@H]1C[C@H](NS(C)(=O)=O)[C@H](CO[C@H]2CC[C@@]3(c4ncc(F)cn4)C[C@H]3C2)N1C(=O)OC [Example 132, methyl (2R,3S,5S)-2-((((1S,3S,6R)-6-(5-fluoropyrimidin-2-yl)bicyclo[4.1.0]heptan-3-yl)oxy)methyl)-5-(methoxymethyl)-3-(methylsulfonamido)pyrrolidine-1-carboxylate] | 9.7 | –
5 | COC(=O)N1[C@H](C)C[C@H](NS(C)(=O)=O)[C@@H]1COC1CCC2(c3ncc(F)cn3)CC2C1 (stereo partly drawn) [Example 135, methyl (2R,3S,5R)-2-(((6-(5-fluoropyrimidin-2-yl)bicyclo[4.1.0]heptan-3-yl)oxy)methyl)-5-methyl-3-(methylsulfonamido)pyrrolidine-1-carboxylate] | 6.3 | –
6 | COC(=O)N1[C@H](C)C[C@H](NS(C)(=O)=O)[C@@H]1COC1CCC2(c3ncc(Cl)cn3)CC2C1 (stereo partly drawn) [Example 140, methyl (2R,3S,5R)-2-(((6-(5-chloropyrimidin-2-yl)bicyclo[4.1.0]heptan-3-yl)oxy)methyl)-5-methyl-3-(methylsulfonamido)pyrrolidine-1-carboxylate] | 11.1 | –
7 | COC(=O)N1[C@H](C)C[C@H](NS(C)(=O)=O)[C@@H]1COC1CCC2(c3nccs3)CC2C1 (stereo partly drawn) [Example 149, methyl (2R,3S,5R)-5-methyl-3-(methylsulfonamido)-2-(((6-(thiazol-2-yl)bicyclo[4.1.0]heptan-3-yl)oxy)methyl)pyrrolidine-1-carboxylate] | 179 | –
8 | CC(C)OC(=O)N1[C@H](C)C[C@H](NS(C)(=O)=O)[C@@H]1COC1CCC2(c3ncc(Cl)cn3)CC2C1 (stereo partly drawn) [Example 154, isopropyl (2R,3S,5R)-2-(((6-(5-chloropyrimidin-2-yl)bicyclo[4.1.0]heptan-3-yl)oxy)methyl)-5-methyl-3-(methylsulfonamido)pyrrolidine-1-carboxylate] | 16.9 | –
9 | COC(=O)N1[C@H](C)C[C@H](NS(C)(=O)=O)[C@@H]1COC1CCC2(c3ncc(C)cn3)CC2C1 (stereo partly drawn) [Example 159, methyl (2R,3S,5R)-5-methyl-2-(((6-(5-methylpyrimidin-2-yl)bicyclo[4.1.0]heptan-3-yl)oxy)methyl)-3-(methylsulfonamido)pyrrolidine-1-carboxylate] | 79.4 | –
10 | CC(C)OC(=O)N1[C@H](C)C[C@H](NS(=O)(=O)N(C)C)[C@@H]1COC1CCC2(c3ncc(F)cn3)CC2C1 (stereo partly drawn) [Example 164, isopropyl (2R,3S,5R)-3-((N,N-dimethylsulfamoyl)amino)-2-(((6-(5-fluoropyrimidin-2-yl)bicyclo[4.1.0]heptan-3-yl)oxy)methyl)-5-methylpyrrolidine-1-carboxylate] | 2.6 | –
11 | COC(=O)N1[C@H](C)C[C@H](NS(=O)(=O)N(C)C)[C@@H]1COC1CCC2(c3ncc(F)cn3)CC2C1 (stereo partly drawn) [Example 169, methyl (2R,3S,5R)-3-((N,N-dimethylsulfamoyl)amino)-2-(((6-(5-fluoropyrimidin-2-yl)bicyclo[4.1.0]heptan-3-yl)oxy)methyl)-5-methylpyrrolidine-1-carboxylate] | – | 100
12 | CC(C)OC(=O)N1[C@H](C)C[C@H](NS(=O)(=O)N(C)C)[C@@H]1COC1CCC2(c3ncccn3)CC2C1 (stereo partly drawn) [Example 174, isopropyl (2R,3S,5R)-3-((N,N-dimethylsulfamoyl)amino)-5-methyl-2-(((6-(pyrimidin-2-yl)bicyclo[4.1.0]heptan-3-yl)oxy)methyl)pyrrolidine-1-carboxylate] | 7.5 | –
13 | COC(=O)N1[C@@H]2CCC[C@@H]2[C@H](NS(C)(=O)=O)[C@@H]1COC1CCC2(c3ncccn3)CC2C1 (stereo partly drawn) [Example 175, methyl (2R,3S,3aS,6aR)-3-(methylsulfonamido)-2-(((6-(pyrimidin-2-yl)bicyclo[4.1.0]heptan-3-yl)oxy)methyl)hexahydrocyclopenta[b]pyrrole-1(2H)-carboxylate] | 22.6 | –
14 | COC(=O)N1CC[C@H](NS(C)(=O)=O)[C@@H]1COC1CCC2(c3ncccn3)CC2C1 (stereo partly drawn) [Example 185, methyl (2R,3S)-3-(methylsulfonamido)-2-(((6-(pyrimidin-2-yl)bicyclo[4.1.0]heptan-3-yl)oxy)methyl)pyrrolidine-1-carboxylate] | 1620 | –
